In DBAASP:
Converted amounts (≈) assume the structure as drawn.

Experiments:
Assay in all cases: ≥ marks a high value that may be exact or a test limit, other limits are often not marked, values filed in µg/mL are converted to µM
Bacillus cereus = system: Bacillus cereus
[1] = system: Bacillus subtilis IFO 3134
Enterococcus faecalis = system: Enterococcus faecalis
[2] = system: Escherichia coli IFO 12734
Escherichia coli = system: Escherichia coli
Leuconostoc lactis = system: Leuconostoc lactis
Listeria innocua = system: Listeria innocua
Micrococcus luteus = system: Micrococcus luteus
Pasteurella multocida = system: Pasteurella multocida
[3] = system: Pseudomonas aeruginosa IFO 12582
[4] = system: Staphylococcus aureus IFO 12732
[5] = system: Staphylococcus epidermidis
Streptococcus uberis = system: Streptococcus uberis
[6] = system: Lacticaseibacillus casei ATCC 4646
[7] = system: Streptococcus gordonii Challis DL1
[8] = system: Streptococcus mitis ATCC 903
Streptococcus mutans = system: Streptococcus mutans
[9] = system: Streptococcus sanguinis NY101
[10] = system: Veillonella atypica PK1910
[11] = system: Acinetobacter baumannii ATCC 19606
[12] = system: Bordetella bronchiseptica CUN 11844-99
[13] = system: Escherichia coli ATCC 25922
[14] = system: Pseudomonas aeruginosa ATCC 27853
[15] = system: Pseudomonas aeruginosa CUN 4158-02
[16] = system: Staphylococcus aureus ATCC 25923
[17] = system: Staphylococcus aureus ATCC 43300
[18] = system: Staphylococcus aureus CUN 3792-99
[19] = system: Stenotrophomonas maltophilia CUN 3998-00
Staphylococcus aureus = system: Staphylococcus aureus
Bacillus subtilis = system: Bacillus subtilis
Candida albicans = system: Candida albicans
Cryptococcus neoformans = system: Cryptococcus neoformans
Pseudomonas putida = system: Pseudomonas putida
Saccharomyces cerevisiae = system: Saccharomyces cerevisiae
Salmonella typhimurium = system: Salmonella typhimurium
Serratia marcescens = system: Serratia marcescens
Streptococcus pneumoniae = system: Streptococcus pneumoniae

CC[C@H](C)[C@H](NC(=O)[C@H](C)NC(=O)[C@@H]1CCCN1C(=O)[C@@H](NC(=O)[C@@H](NC(=O)[C@H](Cc1cnc[nH]1)NC(=O)[C@H](C)NC(=O)[C@H](C)NC(=O)[C@@H](NC(=O)[C@H](CCCCN)NC(=O)[C@H](C)NC(=O)[C@H](CC(C)C)NC(=O)[C@@H](NC(=O)CNC(=O)[C@@H](N)Cc1ccccc1)C(C)C)C(C)C)C(C)C)C(C)C)C(=O)N[C@@H](C)C(=O)N[C@@H](CCC(=O)O)C(=O)N[C@@H](Cc1cnc[nH]1)C(=O)N[C@@H](Cc1ccccc1)C(N)=O [FGVLAKVAAHVVPAIAEHF]
MIC (Bacillus cereus): ≥ 50.6 µM
MIC [1]: ≥ 64 µM
MIC (Enterococcus faecalis): ≥ 50.6 µM
MIC [2]: ≥ 64 µM
MIC (Escherichia coli): > 50.6 µM
MIC (Leuconostoc lactis): ≥ 50.6 µM
MIC (Listeria innocua): ≥ 50.6 µM
MIC (Micrococcus luteus): ≥ 50.6 µM
MIC (Pasteurella multocida): ≥ 50.6 µM
MIC [3]: ≥ 64 µM
MIC [4]: ≥ 64 µM
MIC [5]: ≥ 50.6 µM
MIC (Streptococcus uberis): ≥ 50.6 µM

NCCCC[C@H](NC(=O)[C@H](Cc1c[nH]c2ccccc12)NC(=O)[C@H](Cc1ccccc1)NC(=O)[C@H](CCCCN)NC(=O)[C@H](CCCCN)NC(=O)[C@@H](N)Cc1ccccc1)C(=O)N[C@@H](Cc1c[nH]c2ccccc12)C(=O)N[C@@H](Cc1ccccc1)C(=O)N[C@@H](CCCN=C(N)N)C(=O)N[C@@H](CCCN=C(N)N)C(=O)N[C@@H](Cc1ccccc1)C(=O)NCC(=O)NCC(=O)NCC(=O)N[C@@H](CCCN=C(N)N)C(=O)N[C@@H](Cc1c[nH]c2ccccc12)C(=O)N[C@@H](CCCN=C(N)N)C(=O)N[C@@H](Cc1c[nH]c2ccccc12)C(=O)N[C@@H](CCCN=C(N)N)C(=O)N[C@@H](Cc1c[nH]c2ccccc12)C(=O)N[C@@H](Cc1ccccc1)C(N)=O [FKKFWKWFRRFGGGRWRWRWF]
MIC [6]: 2.65 µM (≈ 8 µg/mL)
MIC [7]: 10.6 µM (≈ 32 µg/mL)
MIC [8]: 21.2 µM (≈ 64 µg/mL)
MIC (Streptococcus mutans): 2.65 µM (≈ 8 µg/mL)
MIC [9]: 5.3 µM (≈ 16 µg/mL)
MIC [10]: 2.65 µM (≈ 8 µg/mL)

CC(C)C[C@H](NC(=O)[C@H](Cc1c[nH]c2ccccc12)NC(=O)[C@H](CC(C)C)NC(=O)[C@H](CCCCN)NC(=O)[C@H](CCC(N)=O)NC(=O)[C@H](CCCCN)NC(=O)[C@H](CS)NC(=O)[C@H](CCCCN)NC(=O)[C@H](CC(C)C)NC(=O)[C@H](CCCCN)NC(=O)[C@H](Cc1ccccc1)NC(=O)[C@H](CCCNC(=N)N)NC(=O)[C@H](CCCNC(=N)N)NC(=O)[C@H](Cc1ccccc1)NC(=O)[C@H](CCCCN)NC(=O)[C@H](CCCCN)NC(=O)[C@H](CS)NC(=O)CN)C(=O)N[C@@H](Cc1c[nH]c2ccccc12)C(=O)N[C@@H](CS)C(=O)NCC(=O)O [GCKKFRRFKLKCKQKLWLWCG]
MIC [11]: 24.1 µM (≈ 64 µg/mL)
MIC [12]: 6.02 µM (≈ 16 µg/mL)
MIC [13]: 385 µM (≈ 1020 µg/mL)
MIC [14]: 96.3 µM (≈ 256 µg/mL)
MIC [15]: ≥ 96.3 µM
MIC [16]: 385 µM (≈ 1020 µg/mL)
MIC [17]: 24.1 µM (≈ 64 µg/mL)
MIC [18]: 12 µM (≈ 32 µg/mL)
MIC [19]: ≥ 385 µM

NCCCC[C@H](NC(=O)CNC(=O)[C@H](CCCCN)NC(=O)[C@H](Cc1ccccc1)NC(=O)[C@H](CCCCN)NC(=O)[C@H](Cc1c[nH]c2ccccc12)NC(=O)[C@H](CCCN=C(N)N)NC(=O)[C@H](Cc1ccccc1)NC(=O)[C@H](CCCN=C(N)N)NC(=O)[C@H](CCCN=C(N)N)NC(=O)[C@H](Cc1ccc(O)cc1)NC(=O)[C@H](CCCCN)NC(=O)[C@H](CCCCN)NC(=O)[C@H](CS)NC(=O)CN)C(=O)N[C@@H](Cc1ccccc1)C(=O)N[C@@H](Cc1c[nH]c2ccccc12)C(=O)N[C@@H](Cc1ccccc1)C(=O)N[C@@H](Cc1c[nH]c2ccccc12)C(=O)NCC(=O)NCC(N)=O [GCKKYRRFRWKFKGKFWFWGG]
MIC [11]: 23.1 µM (≈ 64 µg/mL)
MIC [12]: 11.6 µM (≈ 32 µg/mL)
MIC [13]: 46.2 µM (≈ 128 µg/mL)
MIC [14]: 46.2 µM (≈ 128 µg/mL)
MIC [15]: ≥ 92.4 µM
MIC [16]: 46.2 µM (≈ 128 µg/mL)
MIC [17]: 46.2 µM (≈ 128 µg/mL)
MIC [18]: ≥ 370 µM
MIC [19]: ≥ 185 µM

CC[C@H](C)[C@H](N=C(O)[C@H](C)N=C(O)[C@H](C)N=C(O)[C@@H](N=C(O)[C@@H](N=C(O)[C@H](Cc1cnc[nH]1)N=C(O)[C@H](C)N=C(O)[C@H](C)N=C(O)[C@@H](N=C(O)[C@H](CCCCN)N=C(O)[C@H](C)N=C(O)[C@H](CC(C)C)N=C(O)[C@@H](N=C(O)CN=C(O)[C@H](Cc1ccccc1)N=C(O)[C@H](CC(C)C)N=C(O)CN)C(C)C)C(C)C)C(C)C)C(C)C)C(O)=N[C@@H](C)C(O)=N[C@@H](CCC(=O)O)C(O)=N[C@@H](Cc1cnc[nH]1)C(O)=N[C@@H](Cc1ccccc1)C(=N)O [GLFGVLAKVAAHVVAAIAEHF]
MIC (Bacillus cereus): ≥ 47.2 µM
MIC [1]: 8 µM (≈ 17 µg/mL)
MIC (Enterococcus faecalis): ≥ 47.2 µM
MIC [2]: ≥ 64 µM
MIC (Escherichia coli): > 47.2 µM
MIC (Leuconostoc lactis): 5.66 µM (≈ 12 µg/mL)
MIC (Listeria innocua): ≥ 47.2 µM
MIC (Micrococcus luteus): 23.6 µM (≈ 50 µg/mL)
MIC (Pasteurella multocida): ≥ 47.2 µM
MIC [3]: ≥ 64 µM
MIC [4]: 4 µM (≈ 8.48 µg/mL)
MIC (Staphylococcus aureus): 33.3 µM (≈ 70.7 µg/mL)
MIC [5]: ≥ 47.2 µM
MIC (Streptococcus uberis): 23.6 µM (≈ 50 µg/mL)

CC(C)C[C@H](NC(=O)[C@H](Cc1ccccc1)NC(=O)[C@H](CCCN=C(N)N)NC(=O)[C@H](CCCCN)NC(=O)[C@@H](N)CC(C)C)C(=O)N[C@@H](CCCCN)C(=O)N[C@@H](Cc1c[nH]c2ccccc12)C(=O)N[C@@H](Cc1ccccc1)C(=O)N[C@@H](CCCCN)C(=O)N[C@@H](CCCN=C(N)N)C(=O)N[C@@H](Cc1ccccc1)C(=O)NCC(=O)NCC(=O)NCC(=O)N[C@@H](CCCN=C(N)N)C(=O)N[C@@H](Cc1c[nH]c2ccccc12)C(=O)N[C@@H](CCCN=C(N)N)C(=O)N[C@@H](Cc1c[nH]c2ccccc12)C(=O)N[C@@H](CCCN=C(N)N)C(=O)N[C@@H](Cc1c[nH]c2ccccc12)C(=O)N[C@@H](Cc1ccccc1)C(N)=O [LKRFLKWFKRFGGGRWRWRWF]
MIC [6]: 5.49 µM (≈ 16 µg/mL)
MIC [7]: 22 µM (≈ 64 µg/mL)
MIC [8]: 22 µM (≈ 64 µg/mL)
MIC (Streptococcus mutans): 2.74 µM (≈ 8 µg/mL)
MIC [9]: 5.49 µM (≈ 16 µg/mL)
MIC [10]: 2.74 µM (≈ 8 µg/mL)

CC(C)C[C@H](NC(=O)[C@H](CC(C)C)NC(=O)[C@H](CCCN=C(N)N)NC(=O)[C@H](Cc1cnc[nH]1)NC(=O)[C@@H](NC(=O)[C@H](CCCN=C(N)N)NC(=O)CNC(=O)[C@@H](NC(=O)[C@@H]1CCCN1C(=O)[C@H](Cc1ccccc1)NC(=O)[C@H](CCC(N)=O)NC(=O)[C@H](CC(C)C)NC(=O)CNC(=O)[C@H](C)NC(=O)[C@@H](N)CCCN=C(N)N)C(C)C)C(C)C)C(=O)O [RAGLQFPVGRVHRLL]
MIC (Bacillus subtilis): ≥ 37.2 µM
MIC (Candida albicans): > 149 µM
MIC (Cryptococcus neoformans): ≥ 74.5 µM
MIC (Escherichia coli): 37.2 µM (≈ 64 µg/mL)
MIC (Pseudomonas putida): ≥ 37.2 µM
MIC (Saccharomyces cerevisiae): ≥ 149 µM
MIC (Salmonella typhimurium): 18.6 µM (≈ 32 µg/mL)
MIC (Serratia marcescens): ≥ 37.2 µM
MIC (Staphylococcus aureus): 74.5 µM (≈ 128 µg/mL)
MIC (Streptococcus mutans): ≥ 37.2 µM
MIC (Streptococcus pneumoniae): ≥ 74.5 µM
